Data taken from patent US5491242A, “Protein kinase C inhibitors” (Eli Lilly and Company, priority 1995, dated 1996).
Like-named read-outs stand apart in the source and are kept apart here.

Key:
Type in all cases: biochemical
PKC beta II = PKC beta II (Homo sapiens, UniProt P05771); test: PKC Enzyme Assay, beta II
Protocol: (§1) PKC enzymes=alpha, beta I, beta II, gamma, delta, epsilon, eta and zeta
(§2) Assay components in a total volume of 250 μL are the following:
(§3) Vesicles consisting of 120 μg/mL phosphatidylserine (Avanti Polar Lipids) and sufficient diacylglycerol (Avanti Polar Lipids) to activate the enzyme to maximum activity in 20 mM HEPES buffer (Sigma, St. Louis, Mo.), pH 7.5, 940 μM calcium chloride (Sigma, St. Louis, Mo.) for assaying the alpha, beta I, beta II and gamma enzyme only, 1 mM EGTA for all the enzymes, 10 mM magnesium chloride (Sigma, St. Louis, Mo.) and 30 μM (gamma-32P) ATP (DuPont). For all the enzymes either histone type HL (Worthington) or myelin basic protein is used as substrate. The assay is started by addition of protein kinase C enzyme incubated at 30° C. for 10 minutes and stopped by adding 0.5 mL of cold trichloroacetic acid (Amresco) followed by 100 μL of 1 mg/mL bovine serum albumin (Sigma, St. Louis, Mo.). The precipitate is collected by vacuum filtration on glass fiber filters employing a TOMTEC™ filtration system and quantified by counting in a beta scintillation counter.

PKC gamma = PKC gamma (Homo sapiens, UniProt P05129); test: PKC Enzyme Assay, gamma; conditions: Table 1
PKC delta = PKC delta (Homo sapiens, UniProt Q05655); test: PKC Enzyme Assay, delta; conditions: Table 1
PKC alpha = PKC alpha (Homo sapiens, UniProt P17252); test: PKC Enzyme Assay, alpha
Protocol: as §1, §2, §3

PKC zeta = target: T1, PKC zeta (Homo sapiens, UniProt Q05513); test: PKC Enzyme Assay, zeta; conditions: Table 1
T1 sequence (Q05513 1-592): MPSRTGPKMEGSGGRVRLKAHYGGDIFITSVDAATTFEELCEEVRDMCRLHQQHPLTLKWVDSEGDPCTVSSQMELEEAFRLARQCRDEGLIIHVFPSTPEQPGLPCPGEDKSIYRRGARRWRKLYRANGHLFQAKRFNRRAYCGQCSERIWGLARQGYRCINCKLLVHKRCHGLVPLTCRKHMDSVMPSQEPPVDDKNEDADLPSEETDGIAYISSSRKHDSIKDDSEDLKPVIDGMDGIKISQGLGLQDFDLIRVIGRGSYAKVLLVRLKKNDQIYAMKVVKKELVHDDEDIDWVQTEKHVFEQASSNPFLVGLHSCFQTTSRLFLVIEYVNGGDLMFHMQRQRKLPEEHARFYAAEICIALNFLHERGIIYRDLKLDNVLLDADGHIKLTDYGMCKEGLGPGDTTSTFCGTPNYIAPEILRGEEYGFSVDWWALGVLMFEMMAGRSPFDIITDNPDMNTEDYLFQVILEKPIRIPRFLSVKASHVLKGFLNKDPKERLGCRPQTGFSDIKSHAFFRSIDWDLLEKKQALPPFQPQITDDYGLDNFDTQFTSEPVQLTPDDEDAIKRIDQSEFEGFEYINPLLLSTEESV
Protocol: as §1, §2, §3

PKC beta I = PKC beta I (Homo sapiens, UniProt P05771); test: PKC Enzyme Assay, beta I; conditions: Table 1; read-out: IC50 β1
Protocol: as §1, §2, §3

Sequence of PKC delta (Q05655 whole entry): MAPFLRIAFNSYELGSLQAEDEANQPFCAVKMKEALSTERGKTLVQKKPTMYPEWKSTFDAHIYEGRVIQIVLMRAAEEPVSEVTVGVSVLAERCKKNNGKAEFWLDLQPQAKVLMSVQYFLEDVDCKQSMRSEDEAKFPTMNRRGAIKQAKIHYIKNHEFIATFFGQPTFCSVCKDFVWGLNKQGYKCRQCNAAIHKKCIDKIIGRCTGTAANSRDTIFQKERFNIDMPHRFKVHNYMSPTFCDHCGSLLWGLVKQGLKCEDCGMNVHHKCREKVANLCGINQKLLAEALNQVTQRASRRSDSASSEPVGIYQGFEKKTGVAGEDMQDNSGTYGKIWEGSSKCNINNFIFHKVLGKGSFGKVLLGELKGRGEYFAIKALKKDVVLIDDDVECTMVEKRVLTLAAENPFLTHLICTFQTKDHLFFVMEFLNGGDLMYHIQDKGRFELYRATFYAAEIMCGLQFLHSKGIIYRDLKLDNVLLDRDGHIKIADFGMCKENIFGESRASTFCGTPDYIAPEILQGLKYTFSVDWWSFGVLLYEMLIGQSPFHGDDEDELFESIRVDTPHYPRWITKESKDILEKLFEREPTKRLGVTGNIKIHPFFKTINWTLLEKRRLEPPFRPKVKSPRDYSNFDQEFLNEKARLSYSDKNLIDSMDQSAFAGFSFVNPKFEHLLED
Sequence of PKC beta I (P05771 whole entry): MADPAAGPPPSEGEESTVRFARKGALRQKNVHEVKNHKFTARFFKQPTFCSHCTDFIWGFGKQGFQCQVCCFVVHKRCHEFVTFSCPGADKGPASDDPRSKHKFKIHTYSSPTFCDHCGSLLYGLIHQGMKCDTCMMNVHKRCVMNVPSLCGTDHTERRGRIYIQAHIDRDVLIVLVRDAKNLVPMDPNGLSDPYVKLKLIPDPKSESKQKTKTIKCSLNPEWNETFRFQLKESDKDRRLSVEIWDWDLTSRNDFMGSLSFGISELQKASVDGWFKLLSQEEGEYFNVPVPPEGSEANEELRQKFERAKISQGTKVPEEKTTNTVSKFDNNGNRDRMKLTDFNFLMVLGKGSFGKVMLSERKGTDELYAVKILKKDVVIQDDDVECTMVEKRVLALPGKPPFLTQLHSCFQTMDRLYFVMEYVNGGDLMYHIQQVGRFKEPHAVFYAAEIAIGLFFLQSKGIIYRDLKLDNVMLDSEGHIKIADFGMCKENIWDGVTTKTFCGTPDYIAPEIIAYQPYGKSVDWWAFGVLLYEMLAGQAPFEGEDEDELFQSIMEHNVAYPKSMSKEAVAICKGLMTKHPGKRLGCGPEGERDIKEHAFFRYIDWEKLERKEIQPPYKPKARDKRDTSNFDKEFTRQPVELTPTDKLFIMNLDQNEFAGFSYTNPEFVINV
Sequence of PKC beta II (P05771 1-673 isoform P05771-2): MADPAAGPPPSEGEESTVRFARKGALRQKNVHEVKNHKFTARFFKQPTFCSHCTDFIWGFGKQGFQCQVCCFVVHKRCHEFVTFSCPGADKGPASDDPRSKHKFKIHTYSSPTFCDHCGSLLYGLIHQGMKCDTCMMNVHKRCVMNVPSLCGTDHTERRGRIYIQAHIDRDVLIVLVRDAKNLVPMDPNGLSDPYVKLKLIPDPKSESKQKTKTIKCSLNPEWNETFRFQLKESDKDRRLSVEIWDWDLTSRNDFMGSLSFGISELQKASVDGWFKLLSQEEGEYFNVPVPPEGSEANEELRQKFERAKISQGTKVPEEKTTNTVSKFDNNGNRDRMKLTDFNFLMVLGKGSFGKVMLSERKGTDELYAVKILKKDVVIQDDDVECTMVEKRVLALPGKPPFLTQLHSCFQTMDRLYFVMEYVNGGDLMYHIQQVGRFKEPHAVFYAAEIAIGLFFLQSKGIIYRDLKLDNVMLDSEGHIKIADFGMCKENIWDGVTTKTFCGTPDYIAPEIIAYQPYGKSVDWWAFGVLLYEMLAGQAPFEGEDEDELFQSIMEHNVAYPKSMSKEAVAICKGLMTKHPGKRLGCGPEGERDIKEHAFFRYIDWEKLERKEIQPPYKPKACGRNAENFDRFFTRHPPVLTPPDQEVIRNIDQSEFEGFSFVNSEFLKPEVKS

IC50 (PKC beta II; read-out: 50% inhibition at a concentration for the beta-2 isozyme) [µM] | IC50 (PKC gamma) [µM] | IC50 (PKC delta) [µM] | IC50 (PKC alpha; read-out: IC50 with respect to the alpha protein kinase C isozyme) [µM] | IC50 (PKC zeta) [µM] | IC50 (PKC beta I) [µM] | IC50 (PKC beta II; Table 1, read-out: IC50 β2) [µM] | IC50 (PKC alpha; Table 1, read-out: IC50 α) [µM] | SMILES
0.031 | 19 | 4.6 | 1.4 | 100 | 0.26 | – | – | CC(C)(C)OC(=O)NCC(=O)n1cc(C2=C(c3cn(CCCN=[N+]=[N-])c4ccccc34)C(=O)NC2=O)c2ccccc21 [Example 1, 3-[1-(3-azidopropyl)-3-indolyl]-4-[(1-N-^t BOC)-glycine-3-indolyl]-1H-pyrrol-2,5-dione]
– | > 100 | > 100 | – | > 100 | 8 | 2.6 | 83 | CC(C)(C)OC(=O)N[C@@H](Cc1ccccc1)C(=O)n1cc(C2=C(c3cn(C(=O)[C@H](Cc4ccccc4)NC(=O)OC(C)(C)C)c4ccccc34)C(=O)NC2=O)c2ccccc21 [Example 3, 3,4-Bis[(1-N-^t BOC)-phenylalanine-3-indolyl]-1H-pyrrol-2,5-dione]
